Series [1] has as its system PD-1/PD-L1 mediated inhibitory signal to T cell activation (CHO-PD-L1-CD3L cells and Jurkat-PD-1-NFAT cells). Briefly: Blocking of PD-1/PD-L1 mediated inhibitory signal to T cell activation at cell level (NFAT luciferase reporter, co-culture). It is filed as cell-based. As to conditions: Homo sapiens, CHO-PD-L1-CD3L / Jurkat-PD-1-NFAT co-culture, 6 h. On the procedure:
In order to test the effect of interaction between PD-1 and PD-L1 on T cell activation signal in immune response, CHO-PD-L1-CD3L cells stably expressing human PD-L1 molecule and anti-CD3 single-chain antibody (ScFv) and Jurkat-PD-1-NFAT cells stably expressing human PD-1 molecule and NFAT reporter gene were constructed. When two kinds of cells are incubated together, anti-CD3 ScFv on the CHO cell surface and membrane CD3 molecule of Jurkat cell combine to transmit an activation signal into Jurkat cell. However, due to the binding of PD-L1 on the CHO cell surface and PD-1 molecule on the Jurkat cell surface at the same time, a signal for inhibiting activation is transmitted inward, so that luciferase reporter gene cannot be expressed. When an immunocheckpoint antibody or small-molecule inhibitor is added, the binding of PD-1 and PD-L1 is blocked, the NFAT pathway activated by CD3 ScFv antibody and CD3 cross-linking mediated T cell activation signal is no longer affected by the inhibitory signal, and the downstream luciferase reporter gene starts to be expressed. Chemiluminescence signals proportional to reporter gene activation can be detected by adding a catalytic substrate.
CHO-PD-L1-CD3L cells expressing human PD-L1 molecule and anti-CD3 single-chain antibody (ScFv) and Jurkat-PD-1-NFAT cells stably expressing human PD-1 molecule and NFAT reporter gene were all independently constructed and presented by Dr. Chen Bo (KeyMed Biosciences (Chengdu) Co., Ltd. Puromycin (Cat # 540411) and Hygromycin B (Cat # V900372) for stable culture of transfected cells were purchased from Sigma, PMA (Cat # P1585) was purchased from Sigma, and the anti human PD-L1 antibody (Cat # GMP-A066) was purchased from Novoprotein Company. The Luciferase substrate solution (Cat # E6485) and the luciferase-specific cell lysate 5×(Cat # E1531) were purchased from Promega company. The fluorescence detector Tecan (Spark 10M) was purchased from Tecan Company in Switzerland.
Main Process of Experiment • (1) On the day before the experiment, 100 μL of CHO-PD-L1-CD3L cells (about 4×10^4 cells/well) were inoculated at 37° C. overnight in a 96-well cell culture plate, and the culture medium was DMEM/F12 containing 10% FBS, 8 μg/mL Puromycin and 200 μg/mL Hygromycin B. • (2) The test compound was diluted with 0.1% PBST to obtain solutions with different concentration gradients, and then added into 96-well plates and incubated for 30 min in advance. The RPMI 1640 complete medium containing 10% FBS, 8 μg/mL Puromycin and 200 μg/mL Hygromycin B was used to adjust the Jurkat-PD-1-NFAT cell count to 2×10^5 cells/mL, and 100 ng/mL PMA (10 mg/mL storage solution prepared with DMSO) was added to amplify the T cell activation signal. 100 μL of the Jurkat-PD-1-NFAT cells were added into each well of the 96-well plates for co-culture. • (3) During the test reaction, control groups were set, including the solvent control without adding the test compound and the positive control with the addition of the […] in the experimental system. All tests were conducted by use of multiple holes. • (4) Incubation was continued at 37° C. for 6 h, 40 μL of 5×cell lysate was added directly, the solution was mixed well and placed at room temperature for 10 min to completely lyse cells. 50 μL of lysed cell solution was transferred to a fluorescence detection plate, 30 μL of luciferase substrate solution was then added, and the chemiluminescence detection program was immediately selected on the fluorescence detector for determination. • (5) Calculation formula of the inhibition rate of the test compound against T cell activation signal at the cell level: The inhibition rate against T cell activation signal (%)=(original chemiluminescence value of the test hole−solvent control)/(the highest original chemiluminescence value determined in the compound test hole−solvent control)×100%. […]

Series [2] is described as follows: Single-dosing pharmacokinetics test. It is filed as in vivo, B-hPD-1/hPD-L1 female mice. As to conditions: female, B-hPD-1/hPD-L1 (humanized), mouse, po; humanized mice, single dose of 100 mg/kg by gavage, plasma. On the procedure:
24 6-week old B-hPD-1/hPD-L1 female mice (purchased from Biocytogen (Jiangsu) Gene Biotechnology Co., Ltd.) were taken and the test compound was dissolved in a solvent containing 5% DMSO, 60% PEG400 and 35% purified water. The compound I-6 and three control molecules, Example 17, Compound 14 (INCB086550) and Example 180 were dosed. The compound was administered by gavage in a single dose of 100 mg/kg and blood was collected through fundus vein plexus after administration. The time points for blood collection were 15 min, 30 min, 1 h, 2 h, 4 h, 8 h, 24 h, 32 h and 48 h. About 0.1 mL of blood was collected and centrifuged in a centrifuge tube (heparin sodium anticoagulation) at 5000 rpm for 5 min to separate plasma, and then frozen at −20° C. for testing. After the plasma sample was treated, the concentration of the compound in the plasma was determined by liquid chromatography-mass spectrometry (LC-MS/MS). The pharmacokinetic parameters were calculated using Phoenix WinNonlin 7.0 based on the average blood concentration data at different time points.

The nature of series [3]: Repeated-dosing pharmacokinetics test. It is filed as in vivo, B-hPD-1/hPD-L1 humanized female mice. As to conditions: female, B-hPD-1/hPD-L1 (humanized), mouse, po; humanized mice, 50 mg/kg by gavage once a day for 12 days, plasma on day 12. On the procedure:
24 6-week old B-hPD-1/hPD-L1 humanized female mice (purchased from Biocytogen (Jiangsu) Gene Biotechnology Co., Ltd.) were taken and the test compound was dissolved in a solvent containing 5% DMSO, 60% PEG400 and 35% purified water. The compound I-6 and three control molecules, Example 17, Compound 14 (INCB086550) and the aforementioned Example 180 were dosed. The compound was administered by gavage once a day in a dose of 50 mg/kg for 12 consecutive days, and blood was alternately collected through fundus vein plexus on day 12 of administration. The time points for blood collection were 15 min, 30 min, 1 h, 2 h, 4 h, 8 h, 24 h, 32 h and 48 h. About 0.1 mL of blood was collected and centrifuged in a centrifuge tube (heparin sodium for anticoagulation) at 5000 rpm for 5 min to separate plasma, and then frozen at −20° C. for testing. The concentration of the compound in the plasma was determined by liquid chromatography-mass spectrometry (LC-MS/MS). The pharmacokinetic parameters were calculated using Phoenix WinNonlin 7.0 based on the average blood concentration data at different time points.

On to `COCC12CCC(CCN3CCc4c(nc(C(=O)Nc5cccc(-c6cccc(NC(=O)c7nc8c(n7C)CCN(CCC79CCC(C(=O)O)(CC7)C9)C8)c6Cl)c5Cl)n4C)C3)(CC1)C2` [Compound I-6, 4-(2-(2-((2,2′-dichloro-3′-(5-(2-(4-(methoxymethyl)bicyclo[2.2.1]heptan-1-yl)ethyl)-1-methyl-4,5,6,7-tetrahydro-1H-imidazo[4,5-c]pyridine-2-carboxamido)-[1, 1′-biphenyl]-3-yl)carbamoyl)-1-methyl-1,4,6,7-tetrahydro-5H-imidazo[4,5-c]pyridin-5-yl)ethyl)bicyclo[2.2.1]heptane-1-carboxylic acid], for which, in series [1], it took 15.8 nM to reach a half-maximal effect (EC50). Further, in series [2], the AUC(0-t) was 207000 ng·h/mL, the MRT is 10.9 h and the half-life was 9.3 h. In series [3], this compound gave an AUC(0-t) of 151000 ng·h/mL, an MRT of 12 h and a half-life of 9.4 h.

Take `Cn1c(C(=O)Nc2cccc(-c3cccc(NC(=O)c4nc5c(n4C)CCN(CC46CCC(C(=O)O)(CC4)C6)C5)c3Cl)c2Cl)nc2c1CCN(CCO)C2` [Example 180]: in series [1], the EC50 is 108 nM. In series [2], this compound had an AUC(0-t) of 45400 ng·h/mL, an MRT of 4.7 h and a half-life of 3.5 h. In series [3], the AUC(0-t) stood at 27800 ng·h/mL, the mean residence time (MRT) turned out to be 4.2 h and the half-life was 3.3 h.
